Legend:
[1] = target: T1, Prostaglandin G/H synthase 1 (Bos taurus, UniProt O62664); test: Inhibition of bovine seminal microsomal COX1 assessed as PGE2 production
T1 sequence (O62664 whole entry): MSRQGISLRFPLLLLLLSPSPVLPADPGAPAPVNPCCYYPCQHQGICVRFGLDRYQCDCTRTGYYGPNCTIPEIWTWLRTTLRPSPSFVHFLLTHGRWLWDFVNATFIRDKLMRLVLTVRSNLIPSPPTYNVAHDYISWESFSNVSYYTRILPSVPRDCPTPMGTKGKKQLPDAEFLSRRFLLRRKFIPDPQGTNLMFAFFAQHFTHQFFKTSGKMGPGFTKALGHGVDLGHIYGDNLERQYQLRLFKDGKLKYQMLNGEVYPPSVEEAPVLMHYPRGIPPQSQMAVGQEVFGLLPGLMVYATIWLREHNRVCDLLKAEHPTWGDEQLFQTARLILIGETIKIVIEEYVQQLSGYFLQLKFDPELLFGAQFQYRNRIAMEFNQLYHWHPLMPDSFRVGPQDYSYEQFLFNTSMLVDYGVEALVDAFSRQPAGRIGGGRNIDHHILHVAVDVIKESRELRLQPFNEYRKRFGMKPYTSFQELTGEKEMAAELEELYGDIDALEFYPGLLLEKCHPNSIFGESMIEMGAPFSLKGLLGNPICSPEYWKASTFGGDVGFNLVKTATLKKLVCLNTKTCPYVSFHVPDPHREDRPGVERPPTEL

[2] = target: T1, Prostaglandin G/H synthase 1; test: Inhibition of bovine seminal microsomal COX1 assessed as PGE2 production preincubated for 10 mins

Row | Compound | IC50 [1] | IC50 [2]
1 | Oc1cc(O)c2c(c1)O[C@H](c1ccc(O)c(O)c1)[C@@H](O)C2 [CIANIDANOL] | 183 µM | 279 µM
3 | C[C@@H]1O[C@@H](Oc2c(-c3ccc(O)c(O)c3)oc3cc(O)cc(O)c3c2=O)[C@H](O)[C@H](O)[C@H]1O [QUERCITRIN] | > 2000 µM | > 2000 µM
